This note sets out measurements from PubChem BioAssay (NCI).

Some test systems named below: HL-60(TB) leukemia; OVCAR-4 ovarian; LOX IMVI melanoma; HOP-92 NSCLC; 786-0 renal; CAKI-1 renal; SK-OV-3 ovarian; SR leukemia; KM12 colon; SF-539 CNS.
Holding throughout (test): NCI anticancer screen, dose series, 48 h

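The compound was tested at five concentrations on cells cultured in 96-well plates, with a 48-hour exposure period. GI50 is the concentration that inhibits growth by half. TGI is the concentration that stops growth completely.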

With `NCCN.NCCN.O=C[O-].O=C[O-].[Co+3].[O-][Cl+3]([O-])([O-])[O-]`, the GI50 with HL-60(TB) leukemia, in the test with OVCAR-4 ovarian, in the test with LOX IMVI melanoma, with HOP-92 NSCLC, in the test on 786-0 renal and in the test on CAKI-1 renal was above 100 µM throughout. In addition, the GI50 in the test on SK-OV-3 ovarian, in the test on SR leukemia, in the test with KM12 colon and with SF-539 CNS was above 100 µM in each case. Besides, the TGI in the test with HL-60(TB) leukemia, in the test with OVCAR-4 ovarian, with LOX IMVI melanoma, with HOP-92 NSCLC, in the test with 786-0 renal and in the test on CAKI-1 renal was above 100 µM throughout. For the same compound, the TGI in the test on SK-OV-3 ovarian, with SR leukemia, in the test on KM12 colon and with SF-539 CNS was above 100 µM each time.
In the case of `C[C@@H]1Cc2c([nH]c3ccccc23)[C@@H](c2c(F)cc(NC3CN(CCCF)C3)cc2F)N1CC(F)(F)CO`, the GI50 with HL-60(TB) leukemia was 4.9 µM; in the test on OVCAR-4 ovarian it was 9.86 µM; in the test on LOX IMVI melanoma, 1.75 µM; with HOP-92 NSCLC it was 1.15 µM; in the test on 786-0 renal, 8.68 µM; in the test on CAKI-1 renal it was 3.66 µM. Further, the GI50 in the test on SK-OV-3 ovarian is 14.4 µM; in the test with SR leukemia, 3.83 µM; with KM12 colon it was 4.21 µM; in the test on SF-539 CNS, 4.36 µM. Further, the TGI worked out at 22.5 µM with HL-60(TB) leukemia; 21.9 µM in the test with OVCAR-4 ovarian; 3.49 µM in the test with LOX IMVI melanoma; 6.36 µM in the test with HOP-92 NSCLC; 24.7 µM in the test on 786-0 renal; 15.7 µM in the test on CAKI-1 renal. Further, the TGI in the test with SK-OV-3 ovarian was 28.4 µM; in the test with SR leukemia it was above 100 µM; with KM12 colon it was 18 µM; in the test on SF-539 CNS, 15.7 µM.
In the case of `COc1ccc(C[C@@H]2NC[C@@H](O)[C@@H]2OC(C)=O)cc1`, the GI50 in the test on HL-60(TB) leukemia is 1.72 µM; with OVCAR-4 ovarian it was 25.9 µM; in the test on LOX IMVI melanoma, 3.46 µM; in the test with 786-0 renal, 9 µM; in the test on CAKI-1 renal, 30.3 µM; in the test with SR leukemia it was 6.9 µM. Further, the results for the GI50 with KM12 colon and in the test on SF-539 CNS were 3.53 µM and 9.48 µM, respectively. Also, the TGI is 0.0448 µM with HOP-92 NSCLC, above 100 µM with SR leukemia and above 100 µM with SF-539 CNS.
As for `COC1=CC(=O)C(OC)=C(OC)C1=O`, the GI50 with HL-60(TB) leukemia was 2.92 µM; in the test with OVCAR-4 ovarian it was 3.05 µM; with LOX IMVI melanoma, 12 µM; with HOP-92 NSCLC, 9.38 µM; in the test on 786-0 renal, 18.3 µM; in the test on CAKI-1 renal it was 16.1 µM. Besides, the GI50 in the test with SK-OV-3 ovarian was 72.9 µM; in the test on SR leukemia it was 2.71 µM; in the test on SF-539 CNS, 16.5 µM. The TGI is 8.73 µM with HL-60(TB) leukemia; 9.69 µM in the test with OVCAR-4 ovarian; 25.1 µM with LOX IMVI melanoma; 22.4 µM in the test with HOP-92 NSCLC; 32.5 µM with 786-0 renal; 30 µM with CAKI-1 renal. Also, the TGI in the test with SK-OV-3 ovarian is above 100 µM; in the test on SR leukemia, 9.04 µM; in the test on SF-539 CNS it was 30.9 µM.
For `CC(=O)[O-].[Mn+3].[O-]c1ccccc1C=NCCN=Cc1ccccc1[O-]`, the GI50 in the test with HL-60(TB) leukemia is 19.2 µM; with OVCAR-4 ovarian, above 100 µM; in the test on LOX IMVI melanoma it was above 100 µM; in the test with HOP-92 NSCLC, above 100 µM; in the test with 786-0 renal, above 100 µM; in the test on CAKI-1 renal it was above 100 µM. Besides, the GI50 with SR leukemia is 70.9 µM; with KM12 colon it was 84.9 µM; in the test with SF-539 CNS it was above 100 µM. Moreover, the TGI in the test on HL-60(TB) leukemia, in the test on OVCAR-4 ovarian, in the test on LOX IMVI melanoma, with HOP-92 NSCLC, in the test on 786-0 renal and in the test with CAKI-1 renal was above 100 µM throughout. Moreover, the TGI in the test with SR leukemia, with KM12 colon and in the test on SF-539 CNS was above 100 µM in each case.
As for `CN(C)CCNC(=O)c1cccc2c(Nc3ccc(S(N)(=O)=O)cc3)c3ccccc3nc12`, the TGI turned out to be 5.77 µM with OVCAR-4 ovarian; 2.59 µM in the test on LOX IMVI melanoma; 7.27 µM in the test on HOP-92 NSCLC; 4.92 µM in the test on 786-0 renal; 13.6 µM in the test with CAKI-1 renal; 3.59 µM with SK-OV-3 ovarian. In addition, the TGI with SR leukemia is above 100 µM; with SF-539 CNS it was 3.23 µM.
On to `Cc1ccc(C(=O)Nc2ccc(S(=O)(=O)O)c3cc(S(=O)(=O)O)cc(S(=O)(=O)O)c23)cc1NC(=S)Nc1cc(C(=O)Nc2ccc(S(=O)(=O)O)c3cc(S(=O)(=O)O)cc(S(=O)(=O)O)c23)ccc1C`, for which the TGI in the test on HL-60(TB) leukemia, with OVCAR-4 ovarian, in the test on LOX IMVI melanoma, with 786-0 renal, with CAKI-1 renal and in the test on SR leukemia was above 75 µM each time.
`O=Cc1ccc(-c2ccc(-c3nc4ccccc4o3)cc2)s1`: the GI50 in the test on HL-60(TB) leukemia was 12.7 µM; in the test with OVCAR-4 ovarian, 34.9 µM; in the test with LOX IMVI melanoma, 16.7 µM; with HOP-92 NSCLC it was above 100 µM; with 786-0 renal, 31.9 µM; with CAKI-1 renal, 25.2 µM. The GI50 in the test with SK-OV-3 ovarian is 30.8 µM; in the test on SR leukemia, 15.3 µM; with KM12 colon, 30.3 µM. Further, the TGI with HL-60(TB) leukemia was above 100 µM; with OVCAR-4 ovarian, above 100 µM; in the test with LOX IMVI melanoma, 36 µM; with HOP-92 NSCLC, above 100 µM; in the test on 786-0 renal, above 100 µM; in the test on CAKI-1 renal, 61.1 µM. In addition, the figures for the TGI in the test on SK-OV-3 ovarian, with SR leukemia and in the test with KM12 colon were 99.5 µM, 47.7 µM and above 100 µM, respectively.
As for `CC#C/C(=N\OC[C@H]1COCCN1)c1ccc2ncnc(Nc3ccc(OCc4cccc(F)c4)c(Cl)c3)c2c1`, the GI50 with HL-60(TB) leukemia is 2.04 µM; in the test on OVCAR-4 ovarian, 1.52 µM; in the test with LOX IMVI melanoma, 1.75 µM; with HOP-92 NSCLC it was 1.14 µM; with 786-0 renal, 1.52 µM; with CAKI-1 renal, 0.183 µM. Also, the GI50 was 0.0176 µM with SK-OV-3 ovarian, 1.68 µM with SR leukemia and 1.68 µM with SF-539 CNS. The TGI was determined as 4.57 µM in the test with HL-60(TB) leukemia; 3.16 µM in the test with OVCAR-4 ovarian; 3.29 µM in the test with LOX IMVI melanoma; 2.48 µM with HOP-92 NSCLC; 3.07 µM in the test with 786-0 renal; 10.4 µM in the test on CAKI-1 renal. The TGI was 1.35 µM in the test with SK-OV-3 ovarian, 5.34 µM in the test with SR leukemia and 3.2 µM with SF-539 CNS.
